Measured values published in ChEMBL document CHEMBL4184318, “Identification of Fast-Acting 2,6-Disubstituted Imidazopyridines That Are Efficacious in the in Vivo Humanized Plasmodium falciparum NODscidIL2Rγ null Mouse Model of Malaria” (J Med Chem, 2018).
Converted amounts (≈) assume the structure as drawn. Values belong to the compound of their own block, whether it stands above or below them.

Columns and labels:
[1] = Cmax in NOD-scid IL-2Rgamma-null mouse model engrafted with Plasmodium falciparum 3D7 infected human erythrocytes at 5 mg/kg administered via oral gavage measured over 23 hrs post first dose by LC-MS/MS method; format: ADME, organism-based; design: dose 5 mg/kg, route oral; conditions: in vivo
[2] = Volume of distribution in BALB/c mouse at 5 mg/kg, iv administered as 2 mins of infusion by LC-MS/MS method; format: ADME, organism-based; conditions: in vivo
Mus musculus [3] = assay: Dose normalized AUC (0 to 23 hrs) in NOD-scid IL-2Rgamma-null mouse model engrafted with Plasmodium falciparum 3D7 infected human erythrocytes at 25 mg/kg via oral gavage by LC-MS/MS method; format: ADME, organism-based; conditions: in vivo
[4] = Cmax in NOD-scid IL-2Rgamma-null mouse model engrafted with Plasmodium falciparum 3D7 infected human erythrocytes at 50 mg/kg administered via oral gavage measured over 23 hrs post first dose by LC-MS/MS method; format: ADME, organism-based; design: dose 50 mg/kg, route oral; conditions: in vivo
Rattus norvegicus [5] = assay: Dose normalized AUC (0 to infinity) in Sprague-Dawley rat at 3 mg/kg, iv administered as 2 mins of infusion by LC-MS/MS method; format: ADME, organism-based; conditions: in vivo
Mus musculus [6] = assay: Dose normalized Cmax in NOD-scid IL-2Rgamma-null mouse model engrafted with Plasmodium falciparum 3D7 infected human erythrocytes at 10 mg/kg administered via oral gavage measured over 23 hrs post first dose by LC-MS/MS method; format: ADME, organism-based; conditions: in vivo
[7] = Oral bioavailability in BALB/c mouse at 20 mg/kg administered via gavage as bolus dose by LC-MS/MS method; format: ADME, organism-based; conditions: in vivo
[8] = Oral bioavailability in Sprague-Dawley rat at 15 mg/kg administered via gavage as bolus dose by LC-MS/MS method; format: ADME, organism-based; conditions: in vivo
[9] = Tmax in NOD-scid IL-2Rgamma-null mouse model engrafted with Plasmodium falciparum 3D7 infected human erythrocytes at 50 mg/kg administered via oral gavage measured over 23 hrs post first dose by LC-MS/MS method; format: ADME, organism-based; conditions: in vivo
[10] = Cmax in Sprague-Dawley rat at 15 mg/kg administered via oral gavage as bolus dose by LC-MS/MS method; format: ADME, organism-based; design: dose 15 mg/kg, route oral; conditions: in vivo
Mus musculus [11] = assay: Dose normalized Cmax in NOD-scid IL-2Rgamma-null mouse model engrafted with Plasmodium falciparum 3D7 infected human erythrocytes at 5 mg/kg administered via oral gavage measured over 23 hrs post first dose by LC-MS/MS method; format: ADME, organism-based; conditions: in vivo
[12] = AUC (0 to 23 hrs) in NOD-scid IL-2Rgamma-null mouse model engrafted with Plasmodium falciparum 3D7 infected human erythrocytes at 25 mg/kg administered via oral gavage by LC-MS/MS method; format: ADME, organism-based; design: time < 23 hr, dose 25 mg/kg, route oral; conditions: in vivo
[13] = Tmax in NOD-scid IL-2Rgamma-null mouse model engrafted with Plasmodium falciparum 3D7 infected human erythrocytes at 10 mg/kg administered via oral gavage measured over 23 hrs post first dose by LC-MS/MS method; format: ADME, organism-based; conditions: in vivo
[14] = Tmax in BALB/c mouse at 20 mg/kg administered via oral gavage as bolus dose by LC-MS/MS method; format: ADME, organism-based; conditions: in vivo
Mus musculus [15] = assay: Dose normalized AUC (0 to 23 hrs) in NOD-scid IL-2Rgamma-null mouse model engrafted with Plasmodium falciparum 3D7 infected human erythrocytes at 5 mg/kg administered via oral gavage by LC-MS/MS method; format: ADME, organism-based; conditions: in vivo
[16] = Cmax in BALB/c mouse at 5 mg/kg, iv administered as 2 mins of infusion by LC-MS/MS method; format: ADME, organism-based; design: dose 5 mg/kg, route intravenous; conditions: in vivo
[17] = AUC (0 to 23 hrs) in NOD-scid IL-2Rgamma-null mouse model engrafted with Plasmodium falciparum 3D7 infected human erythrocytes at 10 mg/kg administered via oral gavage by LC-MS/MS method; format: ADME, organism-based; design: dose 10 mg/kg, time < 23 hr, route oral; conditions: in vivo
[18] = Tmax in NOD-scid IL-2Rgamma-null mouse model engrafted with Plasmodium falciparum 3D7 infected human erythrocytes at 25 mg/kg administered via oral gavage measured over 23 hrs post first dose by LC-MS/MS method; format: ADME, organism-based; conditions: in vivo
[19] = Kinetic solubility of the compound in phosphate buffered saline at pH 6.5 after 20 hrs by shake flask method; format: physicochemical; conditions: read-out: Kinetic_solubility
Mus musculus [20] = assay: Dose normalized AUC (0 to infinity) in BALB/c mouse at 20 mg/kg administered via oral gavage as bolus dose by LC-MS/MS method; format: ADME, organism-based; conditions: in vivo
[21] = Kinetic solubility of the compound in HCl at pH 2 after 20 hrs by shake flask method; format: physicochemical; conditions: read-out: Kinetic_solubility
[22] = Cmax in NOD-scid IL-2Rgamma-null mouse model engrafted with Plasmodium falciparum 3D7 infected human erythrocytes at 10 mg/kg administered via oral gavage measured over 23 hrs post first dose by LC-MS/MS method; format: ADME, organism-based; design: dose 10 mg/kg, route oral; conditions: in vivo
Mus musculus [23] = assay: Dose normalized AUC (0 to 23 hrs) in NOD-scid IL-2Rgamma-null mouse model engrafted with Plasmodium falciparum 3D7 infected human erythrocytes at 50 mg/kg administered via oral gavage by LC-MS/MS method; format: ADME, organism-based; conditions: in vivo
Mus musculus [24] = assay: Dose normalized AUC (0 to 23 hrs) in NOD-scid IL-2Rgamma-null mouse model engrafted with Plasmodium falciparum 3D7 infected human erythrocytes at 10 mg/kg administered via oral gavage by LC-MS/MS method; format: ADME, organism-based; conditions: in vivo
Mus musculus [25] = assay: Dose normalized Cmax in NOD-scid IL-2Rgamma-null mouse model engrafted with Plasmodium falciparum 3D7 infected human erythrocytes at 25 mg/kg administered via oral gavage measured over 23 hrs post first dose by LC-MS/MS method; format: ADME, organism-based; conditions: in vivo
[26] = AUC (0 to 23 hrs) in NOD-scid IL-2Rgamma-null mouse model engrafted with Plasmodium falciparum 3D7 infected human erythrocytes at 50 mg/kg administered via oral gavage by LC-MS/MS method; format: ADME, organism-based; design: dose 50 mg/kg, time < 23 hr, route oral; conditions: in vivo
[27] = AUC (0 to 23 hrs) in NOD-scid IL-2Rgamma-null mouse model engrafted with Plasmodium falciparum 3D7 infected human erythrocytes at 5 mg/kg administered via oral gavage by LC-MS/MS method; format: ADME, organism-based; design: dose 5 mg/kg, time < 23 hr, route oral; conditions: in vivo
[28] = Drug metabolism in iv or po dosed BALB/c mouse plasma assessed as metabolism at cyclohexane ring by LC-MS/MS method; format: ADME, organism-based; conditions: in vivo
[29] = Tmax in Sprague-Dawley rat at 15 mg/kg administered via oral gavage as bolus dose by LC-MS/MS method; format: ADME, organism-based; conditions: in vivo
Rattus norvegicus [30] = assay: Dose normalized AUC (0 to infinity) in Sprague-Dawley rat at 15 mg/kg administered via oral gavage as bolus dose by LC-MS/MS method; format: ADME, organism-based; conditions: in vivo
[31] = Volume of distribution in Sprague-Dawley rat at 3 mg/kg, iv administered as 2 mins of infusion by LC-MS/MS method; format: ADME, organism-based; conditions: in vivo
Mus musculus [32] = assay: Dose normalized Cmax in NOD-scid IL-2Rgamma-null mouse model engrafted with Plasmodium falciparum 3D7 infected human erythrocytes at 50 mg/kg administered via oral gavage measured over 23 hrs post first dose by LC-MS/MS method; format: ADME, organism-based; conditions: in vivo
[33] = Cmax in BALB/c mouse at 20 mg/kg administered via oral gavage as bolus dose by LC-MS/MS method; format: ADME, organism-based; design: dose 20 mg/kg, route oral; conditions: in vivo
[34] = Tmax in NOD-scid IL-2Rgamma-null mouse model engrafted with Plasmodium falciparum 3D7 infected human erythrocytes at 5 mg/kg administered via oral gavage measured over 23 hrs post first dose by LC-MS/MS method; format: ADME, organism-based; conditions: in vivo
Mus musculus [35] = assay: Dose normalized AUC (0 to infinity) in BALB/c mouse at 5 mg/kg, iv administered as 2 mins of infusion by LC-MS/MS method; format: ADME, organism-based; conditions: in vivo
[36] = Cmax in Sprague-Dawley rat at 3 mg/kg, iv administered as 2 mins of infusion by LC-MS/MS method; format: ADME, organism-based; design: dose 3 mg/kg, route intravenous; conditions: in vivo
[37] = Kinetic solubility of the compound in FaSSIF at pH 6.5 after 20 hrs by shake flask method; format: physicochemical; conditions: read-out: Kinetic_solubility
[38] = Cmax in NOD-scid IL-2Rgamma-null mouse model engrafted with Plasmodium falciparum 3D7 infected human erythrocytes at 25 mg/kg administered via oral gavage measured over 23 hrs post first dose by LC-MS/MS method; format: ADME, organism-based; design: dose 25 mg/kg, route oral; conditions: in vivo
[39] = Drug metabolism in po dosed BALB/c mouse plasma assessed as glucuronidation of pyridine ring by LC-MS/MS method; format: ADME, organism-based; conditions: in vivo
[40] = Drug metabolism in po dosed BALB/c mouse plasma assessed as oxidation of pyridine ring by LC-MS/MS method; format: ADME, organism-based; conditions: in vivo
[41] = Drug metabolism in po dosed BALB/c mouse plasma assessed as sulfation of pyridine ring by LC-MS/MS method; format: ADME, organism-based; conditions: in vivo

- Cmax [1]: 431 ng/mL
- Vd [2]: 1.5 L/kg
- AUC/dose (Mus musculus [3]): 2.311 µg·h/mL/mg/kg
- Cmax [4]: 8650 ng/mL
- AUC/dose (Rattus norvegicus [5]): 286 µM·min
- Cmax/dose (Mus musculus [6]): 0.093 µg/mL/mg/kg
- bioavailability [7]: 51%
- bioavailability [8]: 24%
- Tmax [9]: 0.25 to 2 h
- Cmax [10]: 1.2 µM
- Cmax/dose (Mus musculus [11]): 0.086 µg/mL/mg/kg
- AUC(0-t) at 23 h [12]: 46200 ng·h/mL
- Tmax [13]: 0.5 to 4 h
- Tmax [14]: 1 h
- AUC/dose (Mus musculus [15]): 0.876 µg·h/mL/mg/kg
- Cmax [16]: 5.1 µM
- AUC(0-t) at 23 h [17]: 8670 ng·h/mL
- Tmax [18]: 0.5 to 23 h
- solubility kinetic at 20 h [19]: 99 µM (≈ 39.3 µg/mL)
- AUC/dose (Mus musculus [20]): 2178 µM·min
- solubility kinetic at 20 h [21]: 199 µM (≈ 79.1 µg/mL)
- Cmax [22]: 927 ng/mL
- AUC/dose (Mus musculus [23]): 1.759 µg·h/mL/mg/kg
- AUC/dose (Mus musculus [24]): 0.867 µg·h/mL/mg/kg
- Cmax/dose (Mus musculus [25]): 0.167 µg/mL/mg/kg
- AUC(0-t) at 23 h [26]: 88000 ng·h/mL
- AUC(0-t) at 23 h [27]: 4380 ng·h/mL
- Drug metabolism [28]: Metabolite_Notdetected
- Tmax [29]: 3 h
- AUC/dose (Rattus norvegicus [30]): 342 µM·min
- Vd [31]: 3 L/kg
- Cmax/dose (Mus musculus [32]): 0.173 µg/mL/mg/kg
- Cmax [33]: 9.6 µM
- Tmax [34]: 0.5 to 2 h
- AUC/dose (Mus musculus [35]): 1078 µM·min
- Cmax [36]: 2.6 µM
- solubility kinetic at 20 h [37]: 93 µM (≈ 37 µg/mL)
- Cmax [38]: 3340 ng/mL
Compound: FC1(F)CCC(c2nc3cnc(Nc4ccc(C(F)(F)F)cn4)cc3[nH]2)CC1

- Drug metabolism [39]: Metabolite_Detected
- solubility kinetic at 20 h [19]: < 5 µM
- solubility kinetic at 20 h [21]: 21 µM (≈ 7.46 µg/mL)
- Drug metabolism [40]: Metabolite_Detected
- Drug metabolism [41]: Metabolite_Detected
Compound: FC(F)(F)c1cccc(-c2nc3cnc(Nc4ccccn4)cc3[nH]2)c1
